Patent US8178506B2, “Oligomeric compounds and compositions for use in modulation of small non-coding RNAs” (Regulus Therapeutics Inc., priority 2003, dated 2012)
In the oligonucleotide strings, read from the 5' end, every base follows the letter of its sugar. An asterisk marks phosphorothioate; unmarked linkages are phosphodiester. Other units and linkages are bracketed, terminal groups are in braces. A string of capitals states the bases alone. e = 2'-O-(2-methoxyethyl) (MOE); [5mC] = 5-methylcytosine; d = 2'-deoxy (DNA)

What was measured:
[1] = test system: T47D cells; experiment: Caspase-3 activity assay (apoptosis) in T47D cells; details: for Fold Increase over UTC (caspase-3 activity, apoptosis) / Fold Increase over UTC (caspase activity): T47D cells, 48 hours; for Fold Increase over UTC (caspase-3 activity, apoptosis): 200 nM oligomeric compound; for Fold Increase over UTC (caspase activity) / apoptosis in T47D cells: 200 nM; for Fold Increase over UTC (caspase activity): relative to untreated control; for apoptosis in T47D cells: caspase assay, conclusion from Tables 9-12
[2] = test system: HeLa cells; experiment: Cell cycle assay in HeLa cells; assay type: cell-based, human; details: HeLa cells, 150 nM oligomeric compound; for % cells aneuploid / % cells in cell cycle phase G1 / % cells in cell cycle phase G2/M / % cells in cell cycle phase S / % cells in cell cycle phase subG1: 24 hours, relative to untreated control (UTC = 100); for % cells in cell cycle phase: G1 / % cells in cell cycle phase: G2/M / % cells in cell cycle phase: S / % cells in cell cycle phase: aneuploid / % cells in cell cycle phase: subG1: 48 hours after treatment, relative to untreated control (UTC=100)
[3] = test system: BJ, B16-F10, T47D, T47Dp53 and HeLa cells; experiment: Cell cycle assay (propidium iodide flow cytometry), cell line panel; assay type: cell-based; details: for G1 (percentage of cells in phase of the cell cycle) / G2/M (percentage of cells in phase of the cell cycle) / S (percentage of cells in phase of the cell cycle) / SubG1 (percentage of cells in phase of the cell cycle) / aneuploid (percentage of cells): 150 nM oligomeric compound, 4.5 μg/ml LIPOFECTIN, after 72 hours, propidium iodide flow cytometry; for percentage of aneuploid cells: 150 nM, 72 hours (Table 29)
[4] = test system: Glut4; experiment: Glut4 mRNA expression in adipocytes (real-time PCR); assay type: cell-based, human; details: differentiating adipocytes transfected with oligomeric compound
[5] = test system: adipocytes; experiment: Triglyceride accumulation assay in adipocytes; assay type: cell-based, human; details: differentiating adipocytes transfected with oligomeric compound
[6] = test system: aP2; experiment: aP2 mRNA expression in adipocytes (real-time PCR); assay type: cell-based, human; details: differentiating adipocytes transfected with oligomeric compound
[7] = test system: HSL; experiment: HSL mRNA expression in adipocytes (real-time PCR); assay type: cell-based, human; details: differentiating adipocytes transfected with oligomeric compound
[8] = test system: PPARγ; experiment: PPARγ mRNA expression in adipocytes (real-time PCR); assay type: cell-based, human; details: differentiating adipocytes transfected with oligomeric compound

Substance	Fold Increase over UTC (caspase-3 activity, apoptosis) ([1]; experiment of Table 12) [fold]	% cells aneuploid [2] [%]	% cells in cell cycle phase G1 [2] [%]	% cells in cell cycle phase G2/M [2] [%]	% cells in cell cycle phase S [2] [%]	% cells in cell cycle phase subG1 [2] [%]	% cells in cell cycle phase: G1 [2] [%]	% cells in cell cycle phase: G2/M [2] [%]	% cells in cell cycle phase: S [2] [%]	% cells in cell cycle phase: aneuploid [2] [%]	% cells in cell cycle phase: subG1 [2] [%]	G1 (percentage of cells in phase of the cell cycle) [3] [%]	G2/M (percentage of cells in phase of the cell cycle) [3] [%]	S (percentage of cells in phase of the cell cycle) [3] [%]	SubG1 (percentage of cells in phase of the cell cycle) [3] [%]	aneuploid (percentage of cells) [3] [%]	GLUT4 mRNA [4]	TG (triglyceride accumulation) [5]	AP2 mRNA [6]	HSL mRNA [7]	further results
328388 (eT*e[5mC]*e[5mC]*e[5mC]*eA*dT*dA*dG*d[5mC]*dA*dG*dG*dG*d[5mC]*dA*eG*eA*eG*e[5mC]*e[5mC]; antisense) [compound 328388]	0.9	85	110	115	83	120	99	102	101	126	112	57.5	14.6	28	4.0	14.5	–	–	–	–	–
328394 (eG*eT*eT*eT*eT*dT*dT*d[5mC]*dA*dA*dA*dT*d[5mC]*d[5mC]*d[5mC]*eA*eA*eA*e[5mC]*eT) [compound 328394]	0.8	–	–	–	–	–	–	–	–	–	–	59.5	16	24.5	2.4	18.3	–	–	–	–	–
328400 (antisense eA*eG*eT*eT*e[5mC]*dA*dA*dA*dA*d[5mC]*dT*d[5mC]*dA*dA*dT*e[5mC]*e[5mC]*e[5mC]*eA*eA) [compound 328400]	–	–	–	–	–	–	–	–	–	–	–	–	–	–	–	–	18 percentage of untreated control (UTC)	60 percentage of untreated control (UTC)	34 percentage of untreated control (UTC)	40 percentage of untreated control (UTC)	Fold Increase over UTC (caspase activity) [1]: 1.3; PPAR gamma mRNA [8]: 67 percentage of untreated control (UTC)
328417 (antisense eT*eA*eA*eT*eT*dT*dT*dA*dG*dA*dA*dT*d[5mC]*dT*dT*eA*eA*e[5mC]*eG*e[5mC]) [compound 328417]	–	–	–	–	–	–	–	–	–	–	–	–	–	–	–	–	68 percentage of untreated control (UTC)	83 percentage of untreated control (UTC)	87 percentage of untreated control (UTC)	98 percentage of untreated control (UTC)	Fold Increase over UTC (caspase activity) [1]: 1.0; PPAR gamma mRNA [8]: 94 percentage of untreated control (UTC)
328419 (antisense eT*eG*eT*eT*eG*d[5mC]*d[5mC]*dT*dA*dA*d[5mC]*dG*dA*dA*d[5mC]*eA*e[5mC]*eA*eG*eA) [compound 328419]	0.7	77	109	124	79	87	99	107	96	112	83	51.2	16.3	32.5	6.0	17.9	–	–	–	–	–
328424 (antisense eA*eG*eG*eA*eA*dG*d[5mC]*dA*d[5mC]*dA*d[5mC]*dA*dT*dT*dA*eT*e[5mC]*eA*e[5mC]*eA) [compound 328424]	–	74	110	112	85	60	103	101	91	111	89	61.9	14.4	23.7	3.1	16.9	–	–	–	–	Fold Increase over UTC (caspase activity) [1]: 0.9
328434 (antisense e[5mC]*eG*e[5mC]*eA*eT*d[5mC]*dT*dT*dG*dA*d[5mC]*dT*dG*dT*dA*eG*e[5mC]*eA*eT*eG) [compound 328434]	0.8	–	–	–	–	–	–	–	–	–	–	–	–	–	–	–	83 percentage of untreated control (UTC)	91 percentage of untreated control (UTC)	85 percentage of untreated control (UTC)	96 percentage of untreated control (UTC)	PPAR gamma mRNA [8]: 79 percentage of untreated control (UTC)
328436 (antisense eG*eA*eA*eA*eA*dT*dT*dA*dT*dA*dT*dT*dG*dA*d[5mC]*eT*e[5mC]*eT*eG*eA) [compound 328436]	–	–	–	–	–	–	–	–	–	–	–	59.2	13.9	26.9	3.5	17.4	–	–	–	–	Fold Increase over UTC (caspase-3 activity, apoptosis) ([1]; experiment of Table 10): 0.9 fold
328644 (eG*eA*e[5mC]*eA*eA*dG*dG*dT*dG*dG*dG*dA*dG*d[5mC]*dG*eA*eG*eT*eG*eG; antisense) [compound 328644]	0.7	68	113	109	84	71	101	98	101	82	52	58.4	14	27.6	7.2	17.5	–	–	–	–	–
328651 (eG*eG*eT*eA*eA*dG*dA*dG*dG*dA*dT*dG*d[5mC]*dG*d[5mC]*eT*eG*e[5mC]*eT*e[5mC]; antisense) [compound 328651]	–	–	–	–	–	–	–	–	–	–	–	–	–	–	–	–	78 percentage of untreated control (UTC)	93 percentage of untreated control (UTC)	84 percentage of untreated control (UTC)	109 percentage of untreated control (UTC)	Fold Increase over UTC (caspase-3 activity, apoptosis) ([1]; experiment of Table 10): 0.9 fold; PPAR gamma mRNA [8]: 106 percentage of untreated control (UTC)
328697 (eG*e[5mC]*eT*eT*eG*dT*d[5mC]*d[5mC]*dA*d[5mC]*dA*d[5mC]*dA*dG*dT*eT*e[5mC]*eA*eA*e[5mC]; antisense) [compound 328697]	1.0	–	–	–	–	–	–	–	–	–	–	57.6	16	26.4	2.4	13.5	–	–	–	–	–
ISIS 328394: oligomeric compound targeting mir-181a (eG*eT*eT*eT*eT*dT*dT*d[5mC]*dA*dA*dA*dT*d[5mC]*d[5mC]*d[5mC]*eA*eA*eA*e[5mC]*eT)	–	–	–	–	–	–	–	–	–	–	–	–	–	–	–	–	–	–	–	–	apoptosis in T47D cells [1]: prevent or have a protective effect from apoptosis; percentage of aneuploid cells [3]: higher than average percentages of aneuploid cells
ISIS 328396: oligomeric compound targeting mir-205 (e[5mC]*eT*eG*eG*eT*dT*dG*dG*dG*dT*dA*dT*dG*dA*dG*eA*e[5mC]*eA*eG*eA)	–	–	–	–	–	–	–	–	–	–	–	–	–	–	–	–	–	–	–	–	apoptosis in T47D cells [1]: prevent or have a protective effect from apoptosis; percentage of aneuploid cells [3]: higher than average percentages of aneuploid cells
